Reference: article PMC8534050, “Discovery of a Potent and Highly Isoform-Selective Inhibitor of the Neglected Ribosomal Protein S6 Kinase Beta 2 (S6K2)” (Cancers, 2021)

Assays:
FGFR4 = target: T1, FGFR4 (Homo sapiens, UniProt P22455); assay: HotSpot kinase assay (Reaction Biology); assay type: biochemical; settings: five-point singlicate
T1 construct: purchased Reaction Biology Corp
Experimental: (§1) The provided IC50 values were measured using the HotSpot^TM Kinase Profiling assay and conducted at Reaction Biology Corp. in their facilities in Malvern, PA, USA.

MAPKAPK2 = target: T2, MAPKAPK2 (Homo sapiens, UniProt P49137); assay: HotSpot kinase assay (Reaction Biology); assay type: biochemical; settings: five-point singlicate, max 5 μM
T2 construct: purchased in-house DSF (thermal shift) panel per Fedorov et al; IC50 follow-up at Reaction Biology Corp
T2 sequence (P49137 whole entry): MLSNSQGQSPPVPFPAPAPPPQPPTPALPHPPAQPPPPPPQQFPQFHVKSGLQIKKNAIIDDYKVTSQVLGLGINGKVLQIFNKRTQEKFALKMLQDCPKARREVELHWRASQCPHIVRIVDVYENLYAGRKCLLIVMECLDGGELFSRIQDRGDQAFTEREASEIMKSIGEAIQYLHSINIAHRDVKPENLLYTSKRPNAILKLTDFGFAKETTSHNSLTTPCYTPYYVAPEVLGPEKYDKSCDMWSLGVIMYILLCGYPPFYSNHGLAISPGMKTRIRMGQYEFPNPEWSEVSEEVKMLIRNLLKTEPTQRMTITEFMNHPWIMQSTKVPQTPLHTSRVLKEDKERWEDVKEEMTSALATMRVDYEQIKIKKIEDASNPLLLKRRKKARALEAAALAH
Experimental: as §1

MAPKAPK3 = target: T3, MAPKAPK3 (Homo sapiens, UniProt Q16644); assay: HotSpot kinase assay (Reaction Biology); assay type: biochemical; settings: five-point singlicate, max 5 μM
T3 construct: purchased Reaction Biology Corp
Experimental: as §1

S6K1 = target: T4, S6K1 (Homo sapiens, UniProt P23443); assay: HotSpot kinase assay (Reaction Biology); assay type: biochemical
T4 construct: purchased Reaction Biology Corp
T4 sequence (P23443 whole entry): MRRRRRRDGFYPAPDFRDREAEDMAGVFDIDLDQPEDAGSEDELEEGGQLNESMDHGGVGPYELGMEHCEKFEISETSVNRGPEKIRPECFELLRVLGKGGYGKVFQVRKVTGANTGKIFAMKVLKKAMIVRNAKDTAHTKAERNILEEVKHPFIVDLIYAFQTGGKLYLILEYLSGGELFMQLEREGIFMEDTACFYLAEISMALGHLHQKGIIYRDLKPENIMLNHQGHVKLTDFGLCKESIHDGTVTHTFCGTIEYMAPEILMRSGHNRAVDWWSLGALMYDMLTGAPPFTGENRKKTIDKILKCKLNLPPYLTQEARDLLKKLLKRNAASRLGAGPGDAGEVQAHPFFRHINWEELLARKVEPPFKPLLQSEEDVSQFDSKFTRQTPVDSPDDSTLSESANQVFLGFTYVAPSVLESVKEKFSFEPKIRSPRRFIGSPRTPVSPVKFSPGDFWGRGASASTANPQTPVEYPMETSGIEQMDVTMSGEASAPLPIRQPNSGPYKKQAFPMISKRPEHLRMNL
Experimental: as §1

S6K2 = target: T5, S6K2 (Homo sapiens, UniProt Q9UBS0); assay: HotSpot kinase assay (Reaction Biology); assay type: biochemical; settings: apparent IC50; five-point; compound 2 triplicate, ± standard deviation
T5 construct: purchased Reaction Biology Corp
T5 sequence (Q9UBS0 whole entry): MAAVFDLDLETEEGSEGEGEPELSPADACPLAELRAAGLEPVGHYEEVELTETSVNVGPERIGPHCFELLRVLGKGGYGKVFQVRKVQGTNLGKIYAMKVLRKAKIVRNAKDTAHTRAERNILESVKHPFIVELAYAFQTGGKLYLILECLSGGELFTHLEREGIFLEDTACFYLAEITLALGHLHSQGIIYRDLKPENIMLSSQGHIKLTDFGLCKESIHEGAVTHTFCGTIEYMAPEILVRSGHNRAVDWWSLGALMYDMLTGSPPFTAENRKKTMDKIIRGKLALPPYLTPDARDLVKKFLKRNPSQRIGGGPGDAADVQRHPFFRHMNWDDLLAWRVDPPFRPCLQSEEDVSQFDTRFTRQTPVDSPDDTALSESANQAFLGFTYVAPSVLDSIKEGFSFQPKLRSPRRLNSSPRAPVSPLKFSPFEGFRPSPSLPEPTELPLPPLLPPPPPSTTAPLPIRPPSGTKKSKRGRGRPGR
Experimental: as §1

TTK = target: T6, TTK (Homo sapiens, UniProt P33981); assay: HotSpot kinase assay (Reaction Biology); assay type: biochemical; settings: five-point singlicate, max 5 μM
T6 construct: purchased Reaction Biology Corp
T6 sequence (P33981 whole entry): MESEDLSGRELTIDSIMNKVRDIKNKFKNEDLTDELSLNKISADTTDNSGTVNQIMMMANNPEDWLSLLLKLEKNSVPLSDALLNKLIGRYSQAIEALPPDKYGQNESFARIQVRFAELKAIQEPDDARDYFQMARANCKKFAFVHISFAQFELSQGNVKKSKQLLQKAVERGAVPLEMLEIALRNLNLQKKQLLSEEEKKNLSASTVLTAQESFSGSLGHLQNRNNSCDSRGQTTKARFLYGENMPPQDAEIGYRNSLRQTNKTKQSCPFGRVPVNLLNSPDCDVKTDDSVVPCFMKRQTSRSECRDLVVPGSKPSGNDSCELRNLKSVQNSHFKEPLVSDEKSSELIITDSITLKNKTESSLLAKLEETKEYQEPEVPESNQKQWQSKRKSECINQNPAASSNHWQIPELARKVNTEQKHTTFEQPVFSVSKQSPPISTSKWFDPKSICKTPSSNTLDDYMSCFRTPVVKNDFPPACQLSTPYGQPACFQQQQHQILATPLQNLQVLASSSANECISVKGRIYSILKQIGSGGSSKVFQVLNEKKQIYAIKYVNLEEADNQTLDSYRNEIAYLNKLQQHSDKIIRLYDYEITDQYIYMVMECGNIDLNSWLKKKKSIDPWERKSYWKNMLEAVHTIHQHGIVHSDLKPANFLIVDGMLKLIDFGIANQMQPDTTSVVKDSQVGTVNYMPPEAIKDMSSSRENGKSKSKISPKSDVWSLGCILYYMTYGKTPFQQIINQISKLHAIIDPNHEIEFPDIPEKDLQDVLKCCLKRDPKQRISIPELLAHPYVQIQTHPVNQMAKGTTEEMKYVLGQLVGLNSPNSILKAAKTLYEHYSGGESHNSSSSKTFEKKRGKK
Experimental: as §1

Microsomal stability = assay type: in vitro ADME, mouse; settings: 100 μM, NADPH-regenerating system, up to 90 min
Experimental: Pooled liver microsomes from mice (male) were purchased from XenoTech LLC (Sekisui XenoTech LLC, Kansas City, KS, USA). Incubation of compound 2 was made in the presence of an NADPH-regenerating system (5 mM glucose-6-phosphate, 5 U/mL glucose-6-phosphate dehydrogenase, and 1 mM NADP^+). Compound 2 (100 μM), the NADPH-regenerating system, and 4 mM MgCl2⋅6 H2O in 0.1 M Tris buffer (pH 7.4) were preincubated for 5 min at 37 °C and 750 rpm on a shaker. The incubation mix was split into aliquots (50 μL) and the reaction was started by the addition of mouse liver microsomes. The reaction was quenched at selected time points (0, 10, 20, 30, 60, and 90 min) by adding 100 μL internal standard at a concentration of 50 μM in MeCN. The samples were vortexed for 30 s and centrifuged (19,800 relative centrifugal force/4 °C/15 min). The supernatant was directly used for LC-MS analysis. All incubations were conducted in triplicates and a limit of 1% organic solvent was not exceeded. […]
Detection was performed on a Micromass Quattro micro triple quadrupole mass spectrometer (Waters GmbH, Eschborn, Germany) using electrospray ionization in positive mode. […] The data were analyzed using MassLynx 4.1 (Waters Corporation, Milford, MA, USA)

AKT3 = target: T7, AKT3 (Homo sapiens, UniProt Q9Y243); assay: DSF thermal shift assay; assay type: binding; settings: inhibitor 10 μM, protein 2 μM
T7 construct: purchased in-house DSF (thermal shift) panel per Fedorov et al
Experimental: (§2) Differences in the melting temperature (ΔTm) were measured as described by Fedorov et al.. Purified proteins were buffered in 25 mM HEPES (pH 7.5), 500 mM NaCl and were assayed in a 384-well plate with a final protein concentration of 2 μM in 10 μL assay volume. Inhibitors were added to a final concentration of 10 μM using an ECHO 550 acoustic dispenser (Labcyte, San José, CA, USA). As a fluorescence probe, SYPRO-Orange (Molecular Probes, Eugene, OR, USA) was added in a 1:5000 dilution. […] Data were analyzed through Boltzmann equation in the Protein Thermal Shift software (Applied Biosystems, Waltham, MA, USA). Samples were measured in technical duplicates.

CAMK1G = target: T8, CAMK1G (Homo sapiens, UniProt Q96NX5); assay: DSF thermal shift assay; assay type: binding; settings: inhibitor 10 μM, protein 2 μM
T8 construct: purchased in-house DSF (thermal shift) panel per Fedorov et al; IC50 follow-up at Reaction Biology Corp
Experimental: as §2

CSNK2A2 = target: T9, CSNK2A2 (Homo sapiens, UniProt P19784); assay: DSF thermal shift assay; assay type: binding; settings: inhibitor 10 μM, protein 2 μM
T9 construct: purchased in-house DSF (thermal shift) panel per Fedorov et al
Experimental: as §2

DAPK3 = target: T10, DAPK3 (Homo sapiens, UniProt O43293); assay: DSF thermal shift assay; assay type: binding; settings: inhibitor 10 μM, protein 2 μM
T10 construct: purchased in-house DSF (thermal shift) panel per Fedorov et al
T10 sequence (O43293 whole entry): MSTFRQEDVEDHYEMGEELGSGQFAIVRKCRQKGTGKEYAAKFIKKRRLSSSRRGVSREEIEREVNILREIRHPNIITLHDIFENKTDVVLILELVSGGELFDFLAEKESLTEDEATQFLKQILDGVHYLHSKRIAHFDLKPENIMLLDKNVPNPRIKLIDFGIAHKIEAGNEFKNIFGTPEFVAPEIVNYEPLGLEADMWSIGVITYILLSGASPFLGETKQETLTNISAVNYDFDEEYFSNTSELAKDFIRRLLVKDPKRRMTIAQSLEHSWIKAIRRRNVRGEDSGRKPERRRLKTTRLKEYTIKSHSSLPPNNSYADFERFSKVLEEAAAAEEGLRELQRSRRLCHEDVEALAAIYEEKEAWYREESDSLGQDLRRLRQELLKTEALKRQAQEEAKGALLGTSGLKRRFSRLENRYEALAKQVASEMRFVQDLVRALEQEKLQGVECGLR
Experimental: as §2

DMPK1 = target: T11, DMPK1 (Homo sapiens, UniProt Q09013); assay: DSF thermal shift assay; assay type: binding; settings: inhibitor 10 μM, protein 2 μM
T11 construct: purchased in-house DSF (thermal shift) panel per Fedorov et al
Experimental: as §2

EPHA2 = target: T12, EPHA2 (Homo sapiens, UniProt P29317); assay: DSF thermal shift assay; assay type: binding; settings: inhibitor 10 μM, protein 2 μM
T12 construct: purchased in-house DSF (thermal shift) panel per Fedorov et al
Experimental: as §2

FLT1 = target: T13, FLT1 (Homo sapiens, UniProt P17948); assay: DSF thermal shift assay; assay type: binding; settings: inhibitor 10 μM, protein 2 μM
T13 construct: purchased in-house DSF (thermal shift) panel per Fedorov et al
Experimental: as §2

GPRK5 = target: T14, GPRK5 (Homo sapiens, UniProt P34947); assay: DSF thermal shift assay; assay type: binding; settings: inhibitor 10 μM, protein 2 μM
T14 construct: purchased in-house DSF (thermal shift) panel per Fedorov et al
T14 sequence (P34947 whole entry): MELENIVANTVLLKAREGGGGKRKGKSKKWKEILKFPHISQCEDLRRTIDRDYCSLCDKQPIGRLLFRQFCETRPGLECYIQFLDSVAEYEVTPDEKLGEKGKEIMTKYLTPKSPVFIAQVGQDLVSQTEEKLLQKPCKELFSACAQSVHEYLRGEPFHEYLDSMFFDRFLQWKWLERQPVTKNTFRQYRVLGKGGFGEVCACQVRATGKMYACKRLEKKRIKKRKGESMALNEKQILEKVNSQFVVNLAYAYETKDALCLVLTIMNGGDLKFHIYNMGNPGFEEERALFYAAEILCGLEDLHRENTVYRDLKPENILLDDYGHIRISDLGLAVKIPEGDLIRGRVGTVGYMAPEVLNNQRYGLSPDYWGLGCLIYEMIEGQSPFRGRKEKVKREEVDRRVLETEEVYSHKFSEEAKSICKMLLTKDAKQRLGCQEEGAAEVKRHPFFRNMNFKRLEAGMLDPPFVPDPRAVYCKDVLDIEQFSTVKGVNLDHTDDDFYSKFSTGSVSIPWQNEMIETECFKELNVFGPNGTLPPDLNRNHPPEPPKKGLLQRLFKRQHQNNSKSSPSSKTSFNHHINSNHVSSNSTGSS
Experimental: as §2

MAP3K5 = target: T15, MAP3K5 (Homo sapiens, UniProt Q99683); assay: DSF thermal shift assay; assay type: binding; settings: inhibitor 10 μM, protein 2 μM
T15 construct: purchased in-house DSF (thermal shift) panel per Fedorov et al
Experimental: as §2

MARK3 = target: T16, MARK3 (Homo sapiens, UniProt P27448); assay: DSF thermal shift assay; assay type: binding; settings: inhibitor 10 μM, protein 2 μM
T16 construct: purchased in-house DSF (thermal shift) panel per Fedorov et al
Experimental: as §2

MST3 = target: T17, MST3 (Homo sapiens, UniProt Q9Y6E0); assay: DSF thermal shift assay; assay type: binding; settings: inhibitor 10 μM, protein 2 μM
T17 construct: purchased in-house DSF (thermal shift) panel per Fedorov et al
Experimental: as §2

NEK7 = target: T18, NEK7 (Homo sapiens, UniProt Q8TDX7); assay: DSF thermal shift assay; assay type: binding; settings: inhibitor 10 μM, protein 2 μM
T18 construct: purchased in-house DSF (thermal shift) panel per Fedorov et al
Experimental: as §2

PAK4 = target: T19, PAK4 (Homo sapiens, UniProt O96013); assay: DSF thermal shift assay; assay type: binding; settings: inhibitor 10 μM, protein 2 μM
T19 construct: purchased in-house DSF (thermal shift) panel per Fedorov et al
T19 sequence (O96013 whole entry): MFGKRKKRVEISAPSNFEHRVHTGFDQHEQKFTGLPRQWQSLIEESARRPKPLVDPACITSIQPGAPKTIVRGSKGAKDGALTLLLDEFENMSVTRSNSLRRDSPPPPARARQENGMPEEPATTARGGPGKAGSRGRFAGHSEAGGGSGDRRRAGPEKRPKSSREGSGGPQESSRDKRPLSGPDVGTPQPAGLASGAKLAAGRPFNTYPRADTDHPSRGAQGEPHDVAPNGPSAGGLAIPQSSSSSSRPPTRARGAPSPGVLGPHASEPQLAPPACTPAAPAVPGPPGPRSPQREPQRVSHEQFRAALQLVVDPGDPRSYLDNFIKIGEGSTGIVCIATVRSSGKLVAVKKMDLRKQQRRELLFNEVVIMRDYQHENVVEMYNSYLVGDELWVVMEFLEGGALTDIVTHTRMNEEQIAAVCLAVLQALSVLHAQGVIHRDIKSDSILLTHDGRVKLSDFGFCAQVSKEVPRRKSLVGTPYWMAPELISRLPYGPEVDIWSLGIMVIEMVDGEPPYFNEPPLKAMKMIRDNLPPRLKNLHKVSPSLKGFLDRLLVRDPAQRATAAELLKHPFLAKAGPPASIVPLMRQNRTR
Experimental: as §2

PCTK1 = target: T20, PCTK1 (Homo sapiens, UniProt Q00536); assay: DSF thermal shift assay; assay type: binding; settings: inhibitor 10 μM, protein 2 μM
T20 construct: purchased in-house DSF (thermal shift) panel per Fedorov et al; IC50 follow-up at Reaction Biology Corp
Experimental: as §2

PDK4 = target: T21, PDK4 (Homo sapiens, UniProt Q16654); assay: DSF thermal shift assay; assay type: binding; settings: inhibitor 10 μM, protein 2 μM
T21 construct: purchased in-house DSF (thermal shift) panel per Fedorov et al; IC50 follow-up at Reaction Biology Corp
T21 sequence (Q16654 whole entry): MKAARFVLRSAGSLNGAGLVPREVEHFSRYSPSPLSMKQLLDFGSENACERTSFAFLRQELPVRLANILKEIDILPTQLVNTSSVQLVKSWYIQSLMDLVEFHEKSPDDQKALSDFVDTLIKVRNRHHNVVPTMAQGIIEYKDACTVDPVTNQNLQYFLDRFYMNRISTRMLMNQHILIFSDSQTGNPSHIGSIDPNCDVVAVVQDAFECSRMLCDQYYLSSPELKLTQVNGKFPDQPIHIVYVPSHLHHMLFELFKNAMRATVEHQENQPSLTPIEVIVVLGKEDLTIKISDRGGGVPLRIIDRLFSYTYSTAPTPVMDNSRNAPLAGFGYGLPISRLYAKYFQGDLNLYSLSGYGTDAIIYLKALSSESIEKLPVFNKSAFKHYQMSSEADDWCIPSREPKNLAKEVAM
Experimental: as §2

RPS6KA6 = target: T22, RPS6KA6 (Homo sapiens, UniProt Q9UK32); assay: DSF thermal shift assay; assay type: binding; settings: inhibitor 10 μM, protein 2 μM
T22 construct: purchased in-house DSF (thermal shift) panel per Fedorov et al
Experimental: as §2

STK4 = target: T23, STK4 (Homo sapiens, UniProt Q13043); assay: DSF thermal shift assay; assay type: binding; settings: inhibitor 10 μM, protein 2 μM
T23 construct: purchased in-house DSF (thermal shift) panel per Fedorov et al; IC50 follow-up at Reaction Biology Corp
T23 sequence (Q13043 whole entry): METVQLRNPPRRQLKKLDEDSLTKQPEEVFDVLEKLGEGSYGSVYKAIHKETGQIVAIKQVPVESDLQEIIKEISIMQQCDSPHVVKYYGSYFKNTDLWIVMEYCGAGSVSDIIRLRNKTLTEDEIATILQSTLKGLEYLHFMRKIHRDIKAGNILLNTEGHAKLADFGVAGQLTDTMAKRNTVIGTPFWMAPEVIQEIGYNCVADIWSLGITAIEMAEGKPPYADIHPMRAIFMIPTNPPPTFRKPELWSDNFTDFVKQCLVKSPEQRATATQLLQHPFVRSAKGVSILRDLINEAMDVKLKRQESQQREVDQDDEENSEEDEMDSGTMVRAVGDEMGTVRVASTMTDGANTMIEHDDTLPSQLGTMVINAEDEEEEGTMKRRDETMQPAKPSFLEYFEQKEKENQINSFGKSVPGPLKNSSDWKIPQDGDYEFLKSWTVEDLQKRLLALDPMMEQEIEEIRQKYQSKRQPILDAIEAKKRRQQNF
Experimental: as §2

TAF1 = target: T24, TAF1 (Homo sapiens, UniProt P21675); assay: DSF thermal shift assay; assay type: binding; settings: inhibitor 10 μM, protein 2 μM
T24 construct: purchased in-house DSF (thermal shift) panel per Fedorov et al
Experimental: as §2

TTK1 = target: T25, TTK1 (Homo sapiens, UniProt P33981); assay: DSF thermal shift assay; assay type: binding; settings: inhibitor 10 μM, protein 2 μM
T25 construct: purchased in-house DSF (thermal shift) panel per Fedorov et al
T25 sequence (P33981 whole entry): as the sequence (P33981 whole entry) above
Experimental: as §2

Work on `CCc1cnc(Nc2nc(Cl)ccc2[N+](=O)[O-])nc1N1CCN(Cc2nc3cc(C(F)(F)F)ccc3[nH]2)CC1` [Compound 2] yielded an IC50 (FGFR4) of 216 nM, an IC50 (MAPKAPK2) greater than 5000 nM and an IC50 (MAPKAPK3) greater than 5000 nM. The IC50 (S6K1; five-point singlicate, max 5 μM) was greater than 5000 nM, the “activity for S6K1” value (S6K1; maximum tested compound concentration of 5 μM) was “inactive” and the IC50 (S6K2) was 22 ± 1.6 nM. The IC50 (TTK) was greater than 5000 nM, the “stability in mouse liver microsomes” value (Microsomal stability) was “acceptable stability” and the ΔTm at 10 µM (AKT3) was 0.2 °C. For the same compound, the ΔTm at 10 µM (CAMK1G) was -0.6 °C, the ΔTm at 10 µM (CSNK2A2) was 0.4 °C and the ΔTm at 10 µM (DAPK3) was 0.9 °C. It also gave a ΔTm at 10 µM (DMPK1) of 0.2 °C, a ΔTm at 10 µM (EPHA2) of 0.3 °C and a ΔTm at 10 µM (FLT1) of 0.1 °C. For the same compound, the ΔTm at 10 µM (GPRK5) was -0.6 °C, the ΔTm at 10 µM (MAP3K5) was 0.2 °C and the ΔTm at 10 µM (MARK3) was 0.9 °C. It also gave a ΔTm at 10 µM (MST3) of -0.3 °C, a ΔTm at 10 µM (NEK7) of 0.2 °C and a ΔTm at 10 µM (PAK4) of 0.8 °C. For the same compound, the ΔTm at 10 µM (PCTK1) was -0.2 °C, the ΔTm at 10 µM (PDK4) was -0.1 °C and the ΔTm at 10 µM (RPS6KA6) was 0.6 °C. The ΔTm at 10 µM (STK4) was -0.5 °C, the ΔTm at 10 µM (TAF1) was 0.1 °C and the ΔTm at 10 µM (TTK1) was 1.5 °C.
